Experimental data: BindingDB's records for doi:10.1016/j.bmc.2023.117383 (Fuzhou University, 2023)
pKd: −log10 of the molar value.

Assays:
[1] = biological target: T1, Crossover junction endonuclease MUS81 (Homo sapiens, UniProt Q96NY9); experiment: Binding affinity to human GST-tagged MUS81-ECE1 expressed in Escherichia coli BL21(DE3)Rosetta2 cells assessed as dissociation constant by Surface plasmon resonance analysis
T1 sequence (Q96NY9 whole entry): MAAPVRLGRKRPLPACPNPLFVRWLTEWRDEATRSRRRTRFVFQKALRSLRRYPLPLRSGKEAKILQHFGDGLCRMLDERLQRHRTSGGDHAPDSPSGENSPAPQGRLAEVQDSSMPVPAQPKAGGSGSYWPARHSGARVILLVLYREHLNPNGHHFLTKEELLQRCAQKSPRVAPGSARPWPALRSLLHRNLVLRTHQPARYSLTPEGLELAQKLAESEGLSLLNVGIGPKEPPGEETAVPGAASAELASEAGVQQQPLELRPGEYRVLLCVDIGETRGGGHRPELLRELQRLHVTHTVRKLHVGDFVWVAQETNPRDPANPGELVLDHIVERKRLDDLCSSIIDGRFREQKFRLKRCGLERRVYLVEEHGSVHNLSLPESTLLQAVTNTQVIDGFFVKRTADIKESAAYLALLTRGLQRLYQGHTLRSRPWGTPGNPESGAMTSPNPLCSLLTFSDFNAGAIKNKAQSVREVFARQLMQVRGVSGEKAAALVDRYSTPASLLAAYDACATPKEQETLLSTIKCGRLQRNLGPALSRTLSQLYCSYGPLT

[2] = biological target: T1, Crossover junction endonuclease MUS81; experiment: Binding affinity to human GST-tagged MUS81-ECE2 expressed in Escherichia coli BL21(DE3)Rosetta2 cells assessed as dissociation constant by Surface plasmon resonance analysis

O=C(N/N=C/c1cc(O)c(O)cc1O)c1cc2ccccc2cc1O
pKd [1]: 8.21 | pKd [2]: 8.21
